According to publication PMC5513211, “PA-6 inhibits inward rectifier currents carried by V93I and D172N gain-of-function KIR2.1 channels, but increases channel protein expression” (Journal of Biomedical Science, 2017):
Where a chain is given by its changes, count along the chain named. Read-outs that look alike come from different tables or passages of the source.

Assays:
[1] = biological target: T1, WT KIR2.1 (Homo sapiens, UniProt P63252); experiment: Inside-out patch clamp, ramp protocol, WT KIR2.1 currents; type: cell-based; conditions: inside-out mode, HEK293T, 21 °C
T1 construct: expressed in transfected cells; host or cells: HEK293T
T1 sequence (P63252 1-427): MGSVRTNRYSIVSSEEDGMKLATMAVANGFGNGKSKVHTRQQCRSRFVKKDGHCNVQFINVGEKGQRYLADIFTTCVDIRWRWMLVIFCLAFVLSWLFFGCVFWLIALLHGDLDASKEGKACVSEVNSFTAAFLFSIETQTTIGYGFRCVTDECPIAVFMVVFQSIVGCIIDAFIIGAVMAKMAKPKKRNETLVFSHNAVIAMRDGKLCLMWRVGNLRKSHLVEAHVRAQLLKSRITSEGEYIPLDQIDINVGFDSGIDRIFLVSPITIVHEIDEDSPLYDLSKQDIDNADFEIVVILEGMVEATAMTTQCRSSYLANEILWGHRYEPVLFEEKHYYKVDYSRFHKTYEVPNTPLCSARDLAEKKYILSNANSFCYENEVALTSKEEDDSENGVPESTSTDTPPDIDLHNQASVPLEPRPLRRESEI
Text: (§1) Mutations V93I and D172N were engineered into a human KCNJ2-pcDNA3 expression construct, using the QuikChange II XL Site-Directed Mutagenesis Kit (Stratagene, La Jolla, CA) and custom designed primers. The presence of the introduced mutations was confirmed by Sanger sequencing.
(§2) HEK293T cells were transfected with WT, V93I or D172N constructs together with a GFP expression construct to enable detection of transfected cells. Inside-out patch clamp measurements were made using a HEKA EPC-10 Double Plus amplifier controlled by PatchMaster 2.10 software (HEKA, Lambrecht/Pfalz, Germany) at 21 °C. To record WT, V93I and D172N KIR2.1 currents, inside-out patch-clamp measurements were performed using a ramp protocol ranging from −100 to +100 mV in 5 s from a holding potential of −40 mV. Excised patches were placed in close proximity to the inflow region of the perfusion chamber. Bath solution contained 125 mM KCl, 4 mM EDTA (2K), 7.2 mM K2HPO4, 2.8 mM KH2PO4, pH 7.20/KOH. Pipette solution contained 145 mM KCl, 1 mM CaCl2, 5 mM HEPES, pH 7.40/KOH. Measurements were started following washout of polyamines/Mg^2+ from the channel pore observed by the disappearance of current rectification. For IC50 curves, fractional block at −80 and +50 mV was determined by dividing current levels obtained with PA-6 containing solutions by current levels of control traces recorded in the absence of PA-6.

[2] = biological target: T2, V93I KIR2.1 (Homo sapiens, UniProt P63252, V93I); experiment: Inside-out patch clamp, ramp protocol, V93I KIR2.1 currents; type: cell-based; conditions: inside-out mode, HEK293T, 21 °C
T2 construct: expressed in transfected cells; host or cells: HEK293T
T2 sequence (P63252 1-427 V93I): T1 sequence (P63252 1-427) with V93I
Text: as §1, §2

[3] = biological target: T3, D172N KIR2.1 (Homo sapiens, UniProt P63252, D172N); experiment: Inside-out patch clamp, ramp protocol, D172N KIR2.1 currents; type: cell-based; conditions: inside-out mode; for IC50: HEK293T, 21 °C
T3 construct: expressed in transfected cells; host or cells: HEK293T
T3 sequence (P63252 1-427 D172N): T1 sequence (P63252 1-427) with D172N
Text: as §1, §2

[4] = biological target: T1, WT KIR2.1; experiment: Whole cell patch clamp, WT KIR2.1 currents; type: cell-based; conditions: whole cell mode
Procedure: as §1
(§3) Whole cell patch clamp measurements were done as described before using an AxoPatch 200B amplifier controlled by pClamp9 software (Molecular devices, Sunnyvale, CA, USA) at 21 °C. Whole cell IKIR2.1 measurements were performed by applying 1 s test pulses ranging between −120 and +30 mV, in 10 mV increments, from a holding potential of −40 mV, and with series resistance compensation of at least 70%. Steady state current at the end of the pulse was normalized to cell capacitance and plotted versus test potential (corrected for liquid junction potential). Extracellular solution contained 140 mM NaCl, 5 mM KCl, 1 mM CaCl2, 1 mM MgCl2, 6 mM glucose, 17.5 mM NaHCO3, 15 mM HEPES, pH 7.4/NaOH. Pipette solution contained 125 mM potassium gluconate, 10 mM KCl, 5 mM HEPES, 5 mM EGTA, 2 mM MgCl2, 0.6 mM CaCl2, 4 mM Na2ATP, pH 7.20/KOH.

[5] = biological target: T2, V93I KIR2.1; experiment: Whole cell patch clamp, V93I KIR2.1 currents; type: cell-based; conditions: whole cell mode
Procedure: as §1, §3

[6] = biological target: T3, D172N KIR2.1; experiment: Whole cell patch clamp, D172N KIR2.1 currents; type: cell-based; conditions: whole cell mode
Procedure: as §1, §3

[7] = biological target: T1, WT KIR2.1; experiment: Western blot of KIR2.1 expression, transiently transfected HEK293T cells, WT; type: cell-based; conditions: 24 h
Procedure: (§4) HEK293T cells were grown in 60 mm culture dishes containing 3 mL DMEM supplemented with 10% FCS, L-Glutamine and Pen-Strep, and transfected using linear polyethylenimine (PEI) (PolysciencesInc, Eppelheim, Germany) as described earlier. Cell lysates were prepared in buffer D (20 mM HEPES, 125 mM NaCl, 10% glycerol, 1 mM EDTA, 1 mM EGTA, 1 mM dithiothreitol, and 1% Triton X-100, pH 7.6, supplemented with 1 mM PMSF and 10 μg/mL aprotinin). 20 μg protein lysate was separated by 10% SDS-PAGE and blotted onto nitrocellulose membrane. Ponceau staining was used to reveal equal protein loading and subsequent quantification. Blots were blocked with 5% (v/v) […] in TBST (20 mM Tris-HCl pH 8.0, 150 mM NaCl, 0.05% (v/v) Tween-20) for 1 h at room temperature. KIR2.1 WT and mutants were detected by N-terminal KIR2.1 antibody (Santa Cruz Biotechnology, Dallas Tx, USA, cat. No. sc-18708) and peroxidase-conjugated donkey anti-goat secondary antibody (Jackson ImmunoResearch, West Grove, PA, cat. No. 705-035-003) followed by ECL detection procedure (GE Healthcare, Hoevelaken, The Netherlands). For quantification purposes, untransfected HEK293T cells were used as blank and protein levels were normalized to ponceau staining levels. Differences between group averages were tested by using a one-way ANOVA with a Bonferroni’s post-hoc test.

[8] = biological target: T2, V93I KIR2.1; experiment: Western blot of KIR2.1 expression, transiently transfected HEK293T cells, V93I; type: cell-based; conditions: 24 h
Procedure: as §4

[9] = biological target: T3, D172N KIR2.1; experiment: Western blot of KIR2.1 expression, transiently transfected HEK293T cells, D172N; type: cell-based; conditions: 24 h
Procedure: as §4

[10] = test system: WT, V93I and D172N KIR2.1 channels; experiment: Confocal immunofluorescence microscopy of KIR2.1 localization in HEK293T cells; type: cell-based, human; conditions: 24 h, WT or mutant
Procedure: HEK293T and MES-1 cells were cultured on pre-coated (0.1% gelatin) glass coverslips and transfected using Lipofectamin (Invitrogen, Breda, The Netherlands). Cell fixation, immunolabeling and imaging were performed exactly as described earlier. Antibodies used were anti-KIR2.l (1:250; Santa Cruz Biotechnology, cat. no. sc-18708) and anti-Pan Cadherin (1:800, Sigma-Aldrich, St. Louis MO, USA, cat. No. C1821). HEK293T cells were imaged by confocal microscopy using a Zeiss LSM 700 confocal microscope (Carl Zeiss Microscopy GmbH, Germany) equipped with a 63× oil immersion objective (NA 1.4). Excitation was performed with an air-cooled Argon ion laser (LASOS, RMC 7812Z, 488 nm) for GFP and a HeNE (LASOS, SAN 7450A, 543 nm) laser for DyLight. MES-1 cells were imaged using a conventional Nikon eclipse 80i light microscopy equipped with a 40× objective (NA 0.75).

[11] = test system: WT, V93I and D172N KIR2.1 channels; experiment: Immunofluorescence microscopy of KIR2.1 localization in MES-1 cells; type: cell-based, human; conditions: 5 μM, 24 h
Procedure: HEK293T and MES-1 cells were cultured on pre-coated (0.1% gelatin) glass coverslips and transfected using Lipofectamin (Invitrogen, Breda, The Netherlands). Cell fixation, immunolabeling and imaging were performed exactly as described earlier. […] HEK293T cells were imaged by confocal microscopy using a Zeiss LSM 700 confocal microscope (Carl Zeiss Microscopy GmbH, Germany) equipped with a 63× oil immersion objective (NA 1.4). […] MES-1 cells were imaged using a conventional Nikon eclipse 80i light microscopy equipped with a 40× objective (NA 0.75).

[12] = test system: IK1 / KIR2.1 ion channel; parameters: method as in PMID 23625347; conditions: inside-out patch clamp methodology; read-out: IC50, IK1 inhibition; cited from earlier work
[13] = test system: WT KIR2.1; conditions: 10 μM, cells stably expressing GFP-tagged KIR2.1; cited from earlier work
[14] = test system: WT KIR2.1; conditions: read-out: IC50 (sensitivity for chloroquine); whole cell mode; cited from earlier work
[15] = test system: D172N KIR2.1; conditions: read-out: IC50 (sensitivity for chloroquine); whole cell mode; cited from earlier work
[16] = test system: Kv11.1 (hERG) channel, WT and N558K; conditions: N558K less sensitive than WT; cited from earlier work
[17] = test system: Kv7.1 channel, V307L; conditions: cited from earlier work
[18] = at +50 mV, read-out: IC50, outward current
[19] = at −80 mV, read-out: IC50, inward current
[20] = at −50 mV, read-out: Inhibition of outward IK1
[21] = at −110 mV, read-out: Inhibition of inward IK1

Work on `N=C(Nc1ccc(OCCCCCOc2ccc(NC(=N)c3ccccc3)cc2)cc1)c1ccccc1` [PA-6] yielded an IC50 [1, 18] of 35.5 nM, an IC50 [1, 19] of 52.9 nM and an IC50 [2, 18] of 43.6 nM. It also gave an IC50 [2, 19] of 58 nM, an IC50 [3, 18] of 129 nM and an IC50 [3, 19] of 109 nM. For the same compound, the “Sensitivity of D172N channels relative to WT and V93I” value [3] was “approximately two to three fold less sensitive”, the inhibition at 1 µM [4, 20] was 28 ± 36% and the inhibition at 1 µM [4, 21] was 30 ± 16%. For the same compound, the inhibition at 3 µM [4, 20] was 94 ± 6%, the inhibition at 3 µM [4, 21] was 68 ± 15% and the IC50 [4] was 1000 to 3000 nM. It also gave an inhibition at 1 µM [5, 20] of 18 ± 20%, an inhibition at 1 µM [5, 21] of 28 ± 14% and an inhibition at 3 µM [5, 20] of 77 ± 29%. For the same compound, the inhibition at 3 µM [5, 21] was 64 ± 4%, the IC50 [5] was 1000 to 3000 nM and the inhibition at 1 µM [6, 20] was 10 ± 6%. For the same compound, the inhibition at 1 µM [6, 21] was 30 ± 10%, the inhibition at 3 µM [6, 20] was 86 ± 7% and the inhibition at 3 µM [6, 21] was 83 ± 1%. For the same compound, the IC50 [6] was 1000 to 3000 nM, the “Increase of KIR2.1 expression level” value ([7]; 5 μM) was 6.3 ± 1.5 fold and the “Effect on KIR2.1 expression level at lower concentrations” value (shortened to “Effect … at lower concentrations”) ([7]; 0.2 and 1 μM) was “did not result in significant increased expression”. The “Increase of KIR2.1 expression level” value ([8]; 5 μM) was 3.9 ± 0.9 fold, the “Effect … at lower concentrations” value ([8]; 0.2 and 1 μM) was “did not result in significant increased expression” and the “Increase of KIR2.1 expression level” value ([9]; 5 μM) was 4.8 ± 2.0 fold. For the same compound, the “Effect … at lower concentrations” value ([9]; 0.2 and 1 μM) was “did not result in significant increased expression”, the “Subcellular location of KIR2.1 channels” value ([10]; 1 μM) was “induced an intracellular increase of the channel proteins in small aggregates” and the “Subcellular location of KIR2.1 channels” value ([10]; 5 μM) was “further increased the level of intracellular accumulation”. The “Subcellular location of KIR2.1 channels” value [11] was “resulted in intracellular accumulation”, the IC50 [12] was 14 nM and the “Effect on WT KIR2.1 expression” value [13] was “able to enhance expression of WT KIR2.1”.
For `CCN(CC)CCCC(C)Nc1ccnc2cc(Cl)ccc12` (centres unmarked) [chloroquine], the IC50 [14] is listed as 1400 to 2400 nM and the IC50 [15] is listed as 1200 to 3300 nM.
In the case of `CC[C@H]1CN2CC[C@H]1C[C@@H]2[C@@H](O)c1ccnc2ccc(OC)cc12` [hydroquinidine], the “Difference in IC50 values for WT and N558K Kv11.1 channels” value [16] is given as 3.5 fold.
In the case of `OC(c1cc(C(F)(F)F)nc2c(C(F)(F)F)cccc12)C1CCCCN1` (centres unmarked) [mefloquine], the “Sensitivity of V307L Kv7.1 versus WT variant” value [17] is listed as “equally sensitive”.
For `CCS(=O)(=O)N(C)[C@H]1c2cc(C#N)ccc2OC(C)(C)[C@@H]1O` [Chromanol293B], the “Increase of IC50 value by V307L mutation” value ([17]; V307L versus WT Kv7.1) is listed as 7 fold.
